Measured values taken from the NIST ThermoML archive (doi:10.1016/j.jct.2009.07.002).

Experiment: isobaric coefficient of expansion
Conditions: Liquid, DSC with Pressure Shift

CCCCCCO [hexan-1-ol]
isobaric coefficient of expansion
Conditions | 278.15 K | 288.15 K | 298.15 K | 308.15 K | 318.15 K | 328.15 K | 338.15 K | 348.15 K
5000 kPa | 0.000821 1/K | 0.000837 1/K | 0.00085 1/K | 0.000875 1/K | 0.000898 1/K | 0.000929 1/K | 0.000958 1/K | 0.000995 1/K
10000 kPa | 0.0008 1/K | 0.000819 1/K | 0.000832 1/K | 0.000853 1/K | 0.000877 1/K | 0.0009 1/K | 0.000929 1/K | 0.00096 1/K
15000 kPa | 0.000788 1/K | 0.000802 1/K | 0.000812 1/K | 0.000834 1/K | 0.000854 1/K | 0.000876 1/K | 0.000903 1/K | 0.000929 1/K
20000 kPa | 0.000778 1/K | 0.000786 1/K | 0.000796 1/K | 0.000815 1/K | 0.000833 1/K | 0.000854 1/K | 0.00088 1/K | 0.000903 1/K
25000 kPa | 0.00076 1/K | 0.000772 1/K | 0.00078 1/K | 0.000796 1/K | 0.000812 1/K | 0.000833 1/K | 0.000854 1/K | 0.000875 1/K
30000 kPa | 0.000748 1/K | 0.000756 1/K | 0.000764 1/K | 0.000779 1/K | 0.000794 1/K | 0.000813 1/K | 0.000832 1/K | 0.000852 1/K
35000 kPa | 0.000733 1/K | 0.000743 1/K | 0.000749 1/K | 0.000763 1/K | 0.000778 1/K | 0.000794 1/K | 0.000813 1/K | 0.000831 1/K
40000 kPa | 0.000723 1/K | 0.000731 1/K | 0.000734 1/K | 0.000747 1/K | 0.000758 1/K | 0.000776 1/K | 0.000791 1/K | 0.000808 1/K
45000 kPa | 0.000716 1/K | 0.00072 1/K | 0.000724 1/K | 0.000733 1/K | 0.000745 1/K | 0.000759 1/K | 0.000776 1/K | 0.000791 1/K
50000 kPa | 0.000708 1/K | 0.000703 1/K | 0.000712 1/K | 0.000721 1/K | 0.000729 1/K | 0.000745 1/K | 0.000758 1/K | 0.000772 1/K
55000 kPa | 0.000699 1/K | 0.000696 1/K | 0.0007 1/K | 0.000709 1/K | 0.000719 1/K | 0.000731 1/K | 0.000744 1/K | 0.000754 1/K

CCO [ethanol]
isobaric coefficient of expansion
Conditions | 278.15 K | 288.15 K | 298.15 K | 308.15 K | 318.15 K | 328.15 K | 338.15 K | 348.15 K
5000 kPa | 0.00102 1/K | 0.00103 1/K | 0.00106 1/K | 0.00109 1/K | 0.00112 1/K | 0.00116 1/K | 0.00121 1/K | 0.00127 1/K
10000 kPa | 0.000988 1/K | 0.00101 1/K | 0.00103 1/K | 0.00105 1/K | 0.00109 1/K | 0.00112 1/K | 0.00116 1/K | 0.00122 1/K
15000 kPa | 0.000966 1/K | 0.000983 1/K | 0.001 1/K | 0.00102 1/K | 0.00105 1/K | 0.00108 1/K | 0.00112 1/K | 0.00116 1/K
20000 kPa | 0.000948 1/K | 0.000956 1/K | 0.000973 1/K | 0.000994 1/K | 0.00102 1/K | 0.00105 1/K | 0.00108 1/K | 0.00112 1/K
25000 kPa | 0.000928 1/K | 0.000936 1/K | 0.000952 1/K | 0.000971 1/K | 0.000988 1/K | 0.00102 1/K | 0.00105 1/K | 0.00108 1/K
30000 kPa | 0.000908 1/K | 0.000918 1/K | 0.000929 1/K | 0.000944 1/K | 0.000966 1/K | 0.000988 1/K | 0.00102 1/K | 0.00105 1/K
35000 kPa | 0.000892 1/K | 0.000899 1/K | 0.000908 1/K | 0.000921 1/K | 0.000942 1/K | 0.000962 1/K | 0.000988 1/K | 0.00102 1/K
40000 kPa | 0.000882 1/K | 0.000875 1/K | 0.000887 1/K | 0.000903 1/K | 0.000918 1/K | 0.000936 1/K | 0.000958 1/K | 0.000984 1/K
45000 kPa | 0.000863 1/K | 0.000866 1/K | 0.000871 1/K | 0.000883 1/K | 0.000898 1/K | 0.000912 1/K | 0.000935 1/K | 0.000959 1/K
50000 kPa | 0.000852 1/K | 0.00085 1/K | 0.000853 1/K | 0.000865 1/K | 0.000882 1/K | 0.000894 1/K | 0.000911 1/K | 0.000938 1/K
55000 kPa | 0.000839 1/K | 0.000831 1/K | 0.000839 1/K | 0.000848 1/K | 0.000863 1/K | 0.000877 1/K | 0.000891 1/K | 0.000915 1/K

CCCCCCCCO [octan-1-ol]
isobaric coefficient of expansion
Conditions | 278.15 K | 288.15 K | 298.15 K | 308.15 K | 318.15 K | 328.15 K | 338.15 K | 348.15 K
5000 kPa | 0.000816 1/K | 0.000817 1/K | 0.000818 1/K | 0.00084 1/K | 0.000859 1/K | 0.000877 1/K | 0.0009 1/K | 0.000928 1/K
10000 kPa | 0.000798 1/K | 0.000793 1/K | 0.000799 1/K | 0.000821 1/K | 0.000837 1/K | 0.00085 1/K | 0.000873 1/K | 0.000896 1/K
15000 kPa | 0.00078 1/K | 0.000774 1/K | 0.000784 1/K | 0.000801 1/K | 0.000815 1/K | 0.000827 1/K | 0.000845 1/K | 0.000865 1/K
20000 kPa | 0.000755 1/K | 0.000761 1/K | 0.000764 1/K | 0.000783 1/K | 0.000793 1/K | 0.000805 1/K | 0.000822 1/K | 0.000843 1/K
25000 kPa | 0.000742 1/K | 0.000746 1/K | 0.000749 1/K | 0.000762 1/K | 0.000775 1/K | 0.000787 1/K | 0.000801 1/K | 0.000821 1/K
30000 kPa | 0.00073 1/K | 0.000732 1/K | 0.000736 1/K | 0.000746 1/K | 0.000758 1/K | 0.000767 1/K | 0.000783 1/K | 0.0008 1/K
35000 kPa | 0.000717 1/K | 0.000715 1/K | 0.000724 1/K | 0.00073 1/K | 0.000742 1/K | 0.000751 1/K | 0.000766 1/K | 0.00078 1/K
40000 kPa | 0.000704 1/K | 0.000707 1/K | 0.000714 1/K | 0.000716 1/K | 0.000727 1/K | 0.000735 1/K | 0.000746 1/K | 0.000762 1/K
45000 kPa | 0.00069 1/K | 0.000692 1/K | 0.000698 1/K | 0.000702 1/K | 0.000711 1/K | 0.000719 1/K | 0.000731 1/K | 0.000745 1/K
50000 kPa | 0.000683 1/K | 0.000681 1/K | 0.000687 1/K | 0.000692 1/K | 0.000698 1/K | 0.000705 1/K | 0.000717 1/K | 0.000731 1/K
55000 kPa | 0.000673 1/K | 0.000671 1/K | 0.000676 1/K | 0.000678 1/K | 0.000688 1/K | 0.000692 1/K | 0.000705 1/K | 0.000717 1/K
